Measurements published in US8318898B2, “Synthetic peptides for use as inhibitors of neurotransmitter secretion and as inducers of cellular relaxation” (Universite de Lausanne, priority 2005, dated 2012).
Where two headings read alike, the source gives them in different places. Ends that are not written are not given here.

Tests used:
[1] = system: PC12 cells; assay: Inhibition of [3H]norepinephrine neurosecretion by PC12 cells; format: cell-based, rat; conditions: for inhibition of neurotransmitter-evoked secretion: concentration not given, peptide alone; for level of inhibition maintained over the 48 hour period: cultured with PC12 cells for 48 hours in the presence or absence of serum, up to 90%; for inhibition of secretion, stability test: 100 μM
Protocol: Using the neurosecretion assay described above, peptides fused to the TAT-PTD (L-TAT) were tested for inhibition of neurotransmitters and compared to use of L-TAT alone (SEQ ID NO: 3). In vitro screening for synthetic peptides capable of efficiently and selectively blocking neurotransmitter release in the PC12 cell line grown under defined conditions was performed.
PC12 cells were washed with DMEM-WM (Dulbecco's Modified Eagle Medium (GIBCO cat. no. 31968) completed with 25 units of penicillin and streptomycin each) and loaded for 1-2 h with [^3H] norepinephrine (NE; 0.5 μCi/ml) in DMEM-CM (DMEM-WM complemented with 6% horse serum and 6% fetal calf serum). Cells were washed for 1 h with DMEM-WM, and then washed 2 times at 5-minute intervals. Basal release was determined by a 15-minutes incubation with CaSB-glucose 5 mM K^+ (CaSB-glucose: 140 mM NaCl, 5 mM KCl, 2 mM CaCl2, 11 mM glucose, [pH 7.4]). The peptides were added to the cells at defined concentrations after loading with NE but before induction of secretion. Cells were depolarized with 85 mM K^+ (CaSB-glucose with Na^+ reduced accordingly) for 15 minutes to determine stimulated release. Superfusate (1 ml) was removed to tubes. Adherent cells were solubilized in CaSB-glucose-0.1% Triton (1 ml/well). The quantities of released and non-released radiolabeled neurotransmitter were determined by liquid scintillation counting of cleared superfusates and cell lysates, respectively. Total uptake was calculated by addition of released and retained radioactivity, and the percentage release was as calculated (released counts/total uptake counts)×100. Results were also expressed as percent inhibition of neurosecretion.

[2] = system: PC12-ES cells; assay: [3H]NE evoked secretion by PC12-ES cells with secretagogues; format: cell-based, rat; conditions: potassium 80 mM, nicotine 0.1 mM or carbachol 1 mM, 15 minutes
Text: Neurotransmitter Secretion by PC12-ES. PC12 cells offer a number of advantages for studies of regulated secretion. Exocytosis of large dense-core vesicles (LDCVs) in these cells can be easily assayed for the release of radioactive norepinephrine ([^3H]NE) from pre-labeled cells [Greene et al., Brain Res, 129:247-63, 1977; Greene et al., J Neurochem, 30:579-86, 1978; Greene et al., J. Neurochem. 30:549-55, 1978; Greene et al., Brain Res. 138:521-8; 1977; Greene et al., Nature 268:349-51, 1977]. The neurosecretion assay was carried out by measuring [^3H]NE evoked secretion with PC12-ES cells.
PC12-ES cells were either untreated, treated with STSP (100 nM), or treated with NGF (50 ng/ml) for 48 h before the loading with [^3H]NE and prepared for release measurements. […] Media were collected, and released [^3H]NE as well as the total cell content were determined by liquid scintillation counting. Basal secretion was measured in calcium secretion buffer (CaSB) without secretagogue or CaSB supplemented with 11 mM glucose (CaSB-Glucose). The data are expressed in Table 1 as the percent secretion: [amount released/(amount released+amount in cell lysate)]×100. Net secretion is secretagogue-stimulated release minus basal release.

[3] = target: Recombinant furin (Homo sapiens, UniProt P09958); assay: biochemical; format: biochemical
Protocol: To determine if the peptides described herein have an effect on the activity of PC enzymes which are involved in a condition or disorder such as fibrosis, the effect of the peptides on furin activity in vitro was measured as percent inhibition of cleavage of the furin substrate fluorogenic t-butyloxycarbonyl (Boc)-RVRR-7-amino-4-methylcoumarin (MCA).
All in vitro enzyme studies were performed at room temperature in a final volume of 50-100 μl in 96-well flat-bottom black plates. The buffer consisted of 100 mM HEPES, 1 mM CaCl2, 0.5% TritonX-100, and 1 mM 2-β-mercaptoethanol pH 7.5. Assays were performed using Boc-RVRR-MCA as fluorogenic substrate at 100 μM. Recombinant furin (0.8 U of activity) was incubated with Boc-RVRR-MCA in the presence or absence of varying concentrations of synthetic peptides D-9Rac/am (SEQ ID NO. 15), L-Bel1 (SEQ ID NO. 3), or L-9K (SEQ ID NO. 6). One unit of activity is defined as the amount of furin that can release 1 μmol of MCA from the fluorogenic Boc-RVRR-MCA per min at 30° C. The release of highly fluorescent 7-amino 4-methyl coumarin (MCA) from the Boc-RVRR-MCA was monitored by a spectrofluorometer instrument at excitation and emission wavelengths of 370 nm/460 nm. […]

[4] = target: T1, furin (Rattus norvegicus, UniProt P23377); format: biochemical
T1 construct: Furin activity was constitutively detected in PC12-ES cells; endogenous in cells; host or cells: PC12-ES cells (lysate)
Protocol: To monitor the intracellular furin activity, 80% confluent PC12-ES cells were washed twice with ice-cold phosphate-buffered saline (PBS1×) by centrifugation at 800×g for 5 minutes at 4° C., resuspended in 100 mM HEPES, 1 mM CaCl2, 0.5% TritonX-100, and 1 mM 2-β-mercaptoethanol, pH 7.5, sonicated 6 times at 4° C. for 10 seconds, and then centrifuged at 8000×g for 20 minutes at 4° C. The protein concentration in the samples was determined using a bicinchonic acid protein assay kit (Pierce Chemical Co.).
Intracellular furin activity was measured with a furin-specific fluorogenic substrate, t-butyloxycarbonyl (Boc)-[…]-7-amino-4-methylcoumarin (MCA). Briefly, the cell lysate (20 μg-60 μg of protein) prepared as described above was incubated with 100 μM Boc-RVRR-MCA in a 96-well flat-bottom black plate for at least 6 hours at room temperature and fluorescence measured by excitation at 365 nm and emission at 450 nm.

[5] = cited from earlier work

Sequence of Recombinant furin (P09958 108-794): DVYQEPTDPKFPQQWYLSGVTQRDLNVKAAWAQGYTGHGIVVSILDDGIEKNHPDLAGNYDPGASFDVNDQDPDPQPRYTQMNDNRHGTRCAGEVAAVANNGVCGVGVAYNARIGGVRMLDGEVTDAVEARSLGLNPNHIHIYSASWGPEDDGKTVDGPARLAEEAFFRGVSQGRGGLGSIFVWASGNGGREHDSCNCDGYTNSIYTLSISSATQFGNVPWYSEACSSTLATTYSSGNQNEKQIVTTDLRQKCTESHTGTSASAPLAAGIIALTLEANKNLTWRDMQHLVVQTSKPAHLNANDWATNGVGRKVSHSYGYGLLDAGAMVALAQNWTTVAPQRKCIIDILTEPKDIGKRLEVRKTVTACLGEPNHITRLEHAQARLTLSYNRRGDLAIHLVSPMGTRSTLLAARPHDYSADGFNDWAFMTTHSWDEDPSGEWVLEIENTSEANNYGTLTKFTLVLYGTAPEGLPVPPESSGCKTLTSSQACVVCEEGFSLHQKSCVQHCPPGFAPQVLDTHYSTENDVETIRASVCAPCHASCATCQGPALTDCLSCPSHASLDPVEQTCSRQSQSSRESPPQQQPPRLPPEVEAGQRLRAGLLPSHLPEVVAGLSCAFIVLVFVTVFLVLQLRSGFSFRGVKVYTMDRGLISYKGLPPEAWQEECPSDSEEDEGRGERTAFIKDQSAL
T1 sequence (P23377 108-793): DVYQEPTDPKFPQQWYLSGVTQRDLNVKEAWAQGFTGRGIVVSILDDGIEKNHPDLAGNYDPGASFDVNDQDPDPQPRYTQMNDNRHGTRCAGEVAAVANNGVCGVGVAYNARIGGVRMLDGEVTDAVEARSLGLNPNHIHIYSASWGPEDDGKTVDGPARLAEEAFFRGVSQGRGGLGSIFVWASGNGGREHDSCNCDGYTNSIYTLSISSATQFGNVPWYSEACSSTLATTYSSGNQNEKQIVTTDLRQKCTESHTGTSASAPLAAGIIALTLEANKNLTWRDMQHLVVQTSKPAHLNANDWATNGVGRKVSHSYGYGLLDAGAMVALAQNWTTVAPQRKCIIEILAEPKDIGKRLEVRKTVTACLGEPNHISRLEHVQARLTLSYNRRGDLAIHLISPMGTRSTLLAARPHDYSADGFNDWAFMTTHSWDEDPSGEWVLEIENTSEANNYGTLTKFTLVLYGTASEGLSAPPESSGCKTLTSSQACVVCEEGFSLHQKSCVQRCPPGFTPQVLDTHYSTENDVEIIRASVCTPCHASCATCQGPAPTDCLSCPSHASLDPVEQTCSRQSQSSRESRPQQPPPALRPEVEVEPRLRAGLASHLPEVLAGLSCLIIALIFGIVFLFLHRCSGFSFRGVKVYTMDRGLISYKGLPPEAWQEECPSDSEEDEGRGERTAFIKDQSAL

For “3D-MRP: SEQ ID NO: 8 (KKKKKFDFKKPFKLDGLDFKRNRK; Synthetic peptide 3DMRPED) [Peptide 3D-MRP]”, the “dose dependence of inhibition of neurosecretion” value [1] was “dose dependent inhibition”.

For “9R-L-Ac-am: SEQ ID NO: 11 (Ac-GYGRRRRRRRRRG-NH2) [Peptide 9R-L-Ac-am]”, the “inhibition of neurotransmitter-evoked secretion” value [1] was “approximately 67%” and the “level of inhibition maintained over the 48 hour period” value [1] was “approximately 80%”.

In the case of “9R-L: SEQ ID NO: 5 (GYGRRRRRRRRRG; Synthetic peptide 9R-L)”, the “inhibition of neurotransmitter-evoked secretion” value [1] is reported as “approximately 70%” and the “level of inhibition maintained over the 48 hour period” value [1] is reported as “approximately 80%”.

In the case of “9R-MRP: SEQ ID NO: 22; fusion peptide (GYGRRRRRRRRRGKKKKKKFSFKKPFKLSGLSFKRNRK; Synthetic peptide 9R-MRP)”, the inhibition of secretion ([1]; 50 μM (mixture: 50 μM each)) is reported as “approximately 70%”.

For `C[N+](C)(C)CCOC(N)=O` [Carbachol], the “percent secretion of [3H]NE” value ([2]; CaSB-Glucose, NGF differentiated cells) was 32.4%, the “percent secretion of [3H]NE” value ([2]; CaSB-Glucose, STSP differentiated cells) was 57% and the “percent secretion of [3H]NE” value ([2]; CaSB-Glucose, non-differentiated cells) was 37.24%. The “percent secretion of [3H]NE” value ([2]; CaSB, NGF differentiated cells) was 27%, the “percent secretion of [3H]NE” value ([2]; CaSB, STSP differentiated cells) was 46.5% and the “percent secretion of [3H]NE” value ([2]; CaSB, non-differentiated cells) was 44.7%.

With `O=C(O)CN(CCN(CC(=O)O)CC(=O)O)CC(=O)O` [EDTA, reference compound] the “inhibition of in vitro furin activity (in words)” value [3] was “effectively suppressed” and the “inhibition of intracellular furin activity (in words)” value [4] was “inhibited”.

With `O=C(O)CN(CCOCCOCCN(CC(=O)O)CC(=O)O)CC(=O)O` [EGTA, reference compound] the “inhibition of in vitro furin activity (in words)” value ([3]; Boc-RVRR-MCA 100 μM as substrate) was “effectively suppressed” and the “inhibition of intracellular furin activity (in words)” value ([4]; EDTA 50 mM, EGTA 50 mM, Dec-RVKR-CMK 50 μM) was “inhibited”.

For GRRRRRRRRRGYG [Peptide 9Rrev-D], the “inhibition of neurotransmitter-evoked secretion” value [1] was “approximately 57%” and the “level of inhibition maintained over the 48 hour period” value [1] was “approximately 80%”.

For GYGRRRRRRRRRG [Peptide 9R-D], the “inhibition of neurotransmitter-evoked secretion” value [1] was “approximately 65%” and the “level of inhibition maintained over the 48 hour period” value [1] was “approximately 80%”.

With “L-Tat 49-86: SEQ ID NO: 4 (GRKKRRQRRRAHQNSQTHQASLSKQPTSQPRGDPTGKEG; Synthetic peptide L-Tat 49-86)” the “inhibition of secretion, stability test” value ([1]; 0 hours) was less than 20%, the “inhibition of secretion, stability test” value ([1]; 1 hour) was greater than 10% and the “inhibition of secretion, stability test” value ([1]; 24 hours) was 26%. The “inhibition of secretion, stability test” value ([1]; 48 hours) was 25% and the “inhibition of secretion, stability test” value ([1]; No Serum) was 50%.

For “L-Tat-3D-MRP: SEQ ID NO: 10 (GYGRKKRRQRRRGKKKKKFDFKKPFKLDGLDFKRNRK; Synthetic peptide L-Tat-3DMRPED)”, the “dose dependence of inhibition of neurosecretion” value [1] was “dose dependent inhibition”.

For “L-Tat-ESUP-A: SEQ ID NO: 1; ESUP-A fused to the TAT-PTD (GYGRKKRRQRRRGSNKTRIDEANQRATKMLGSG; Synthetic peptide L-Tat-ESUP-A)”, the “dose dependence of inhibition of neurosecretion” value [1] was “dose dependent inhibition”, the “inhibition of PC12 neurotransmitter secretion” value ([1]; peptide 10 μM) was 30% and the “inhibition of PC12 neurotransmitter secretion” value ([1]; peptide 50 μM) was 40%. For the same molecule, the “inhibition of PC12 neurotransmitter secretion” value ([1]; peptide 100 μM) was 50% and the “inhibition of PC12 neurotransmitter secretion” value ([1]; peptide 250 μM) was 70%.

For “L-Tat-MRP: SEQ ID NO: 9 (GYGRKKRRQRRRGKKKKKFSFKKPFKLSGLSFKRNRK; Synthetic peptide L-Tat-MRPED)”, the “dose dependence of inhibition of neurosecretion” value [1] was “dose dependent inhibition”.

For “MRPEDpep: SEQ ID NO: 7 (KKKKKFSFKKPFKLSGLSFKRNRK; Synthetic peptide MRPED)”, the “dose dependence of inhibition of neurosecretion” value [1] was “dose dependent inhibition”, the “inhibition of secretion, stability test” value ([1]; 0 hours) was greater than 20% and the “inhibition of secretion, stability test” value ([1]; 1 hour) was 23%. The “inhibition of secretion, stability test” value ([1]; 24 hours) was 15% and the “inhibition of secretion, stability test” value ([1]; No Serum) was 17%.

With “NH2-SNKTRIDEANQRATKMLGSG-COOH (H-SNKTRIDEANQRATKMLGSG-OH) [ESUP-A, reference compound]” the “inhibition of neurotransmitter secretion (in words)” value [1] was “only minimal inhibition” and the “inhibition of PC12 neurotransmitter secretion” value ([1]; peptide 100 μM) was 20%.

For “Pal-Lys-Thr-Thr-Lys-Ser (Pal-KTTKS) [palmitoyl pentapeptide]”, the “improving the effects of photo-aging” value ([5]; 3 ppm versus retinol 700 ppm) is listed as “as effective as retinol” and the side effects ([5]; in vivo) is listed as “not associated with any side effects”.
